Values after ≈ are worked out from the molar mass of the structure shown. Where two headings read alike, the source gives them in different places. No end group written: not given here.
Tests used:
HIV-1 strain IIIB = assay type: cell-based, human immunodeficiency virus type 1; settings: for EC50: 2 h exposure
Procedure: Peptide effectiveness was determined in an HIV-1 infection inhibition assay using P4-R5 MAGI indicator cells. […] The cells were then infected with HIV-1 strain IIIB (Advanced Biotechnologies, Inc., Columbia, MD; 10^7.8 TCID50/mL) at multiplicities of infection (MOI) of 0.6, 0.05, or 0.03 in the presence or absence of peptide or dextran sulfate (DS) (Sigma, St. Louis, MO). Following a 2 h incubation at 37°C, the cells were washed with PBS, provided with 200 μL of new media, and incubated for an additional 46 h. Levels of infection were measured using the Galacto-Star-β-Galactosidase Reporter Gene Assay System for Mammalian Cells (Applied Biosystems, Carlsbad, CA) as described by the manufacturer. Chemiluminescence was measured using a Glomax Luminometer plate reader (Promega, Madison, WI).

[1] = exposure durations as long as 48 h, not conjugated to payload; cited from earlier work
P4-R5 MAGI cells = settings: 2 h exposure at concentrations below 1 mg/mL; MTT immediately after exposure or 24 h or 48 h after exposure; two independent assays in quadruplicate
Procedure: P4-R5 MAGI cells were plated at a concentration of 1.5 × 10^4 cells/well in a flat-bottom 96-well plate. The cells were then exposed to the indicated half log concentrations of peptide and incubated at 37°C for 2 h. Following exposure, the cells were washed with PBS and then assayed for cell viability immediately or at 24 h or 48 h after exposure. Viability was measured using a 3-(4,5-dimethylthiazol-2-yl)-2,5-diphenyltetrazolium bromide (MTT) assay as previously described.
Mean values and standard deviations were calculated from two independent assays in which each concentration was examined in quadruplicate.

HIV-1 = settings: preliminary studies, data not shown

RRKKRRRRRR [TPvar3]
EC50 (concentration that resulted in 50% reduction in infection relative to mock-treated, HIV-1-infected cells) (HIV-1 strain IIIB; strain IIIB, 2 h): 0.025 mg/mL

N=C(N)NCCC[C@H](NC(=O)[C@H](CCCNC(=N)N)NC(=O)[C@H](CCCNC(=N)N)NC(=O)[C@H](CCC(N)=O)NC(=O)[C@H](CCCNC(=N)N)NC(=O)[C@H](CCCNC(=N)N)NC(=O)[C@H](CCCCN)NC(=O)[C@H](CCCCN)NC(=O)[C@H](CCCNC(=N)N)NC(=O)CN)C(=O)O [Tat peptide]
concentration up to which peptide alone had no effect on cell viability [1]: up to 100 μM | EC50 (HIV-1 strain IIIB; HIV-1 IIIB, 0.05 MOI (8.8 x 10^3 infectious virions/mL), P4-R5 MAGI cells): 140 µg/mL | EC50 (HIV-1 strain IIIB; HIV-1 IIIB, 0.6 MOI, P4-R5 MAGI cells, same value as 0.094 mg/mL in molar units): 50 µM | effect on P4-R5 MAGI cell viability (P4-R5 MAGI cells): no effect

dextran sulfate [reference compound]
EC50 (concentration that resulted in 50% reduction in infection relative to mock-treated, HIV-1-infected cells) (HIV-1 strain IIIB; HIV-1 IIIB, 0.6 MOI, P4-R5 MAGI cells, 2 h exposure with virus, wash, further 46 h, beta-galactosidase chemiluminescence, two independent assays in quadruplicate): 0.0007 mg/mL

N=C(N)NCCC[C@H](NC(=O)[C@H](CCCNC(=N)N)NC(=O)[C@H](CCCNC(=N)N)NC(=O)[C@H](CCCNC(=N)N)NC(=O)[C@H](CCCNC(=N)N)NC(=O)[C@H](CCCNC(=N)N)NC(=O)[C@H](CCCNC(=N)N)NC(=O)[C@H](CCCNC(=N)N)NC(=O)[C@H](CCCNC(=N)N)NC(=O)[C@@H](N)CCCNC(=N)N)C(=O)O [R-10, decaarginine]
EC50 (concentration that resulted in 50% reduction in infection relative to mock-treated, HIV-1-infected cells) (HIV-1 strain IIIB; strain IIIB, 2 h): 0.014 mg/mL (≈ 8.86 µM)

nona-arginine
anti-HIV-1 activity (HIV-1): anti-HIV-1 activity
